According to ChEMBL document CHEMBL5500332, “Structure-based approaches for the design of 6-aryl-1-(3,4,5-trimethoxyphenyl)-1H-benzo[d][1,2,3]triazoles as tubulin polymerization inhibitors” (Eur J Med Chem, 2024):
The source made the active and inactive calls. No cut-off for these calls is given here.

What was measured:
MCF7 [1] = assay: Antiproliferative activity against human MCF7 cells measured after 72 hrs by MTT assay; type: functional, cell-based; conditions: MCF7, 72 h
SGC-7901 = assay: Antiproliferative activity against human SGC-7901 cells measured after 72 hrs by MTT assay; type: functional, cell-based; conditions: SGC-7901, 72 h
A549 = assay: Antiproliferative activity against human A549 cells measured after 72 hrs by MTT assay; type: functional, cell-based; conditions: A549, 72 h
Tubulin (Homo sapiens) = Tubulin (Homo sapiens) (UniProt P68371+Q9H4B7+P0DPH7+P68366+Q13509+Q71U36+P04350+Q3ZCM7+P07437+P68363+Q9BQE3+Q6PEY2+Q13885+Q9BVA1+Q9BUF5); assay: Inhibition of tubulin polymerization (unknown origin) at 3 uM measured every 60 secs for 90 mins by microplate reader based analysis; type: protein-complex assay
4T1 = assay: Antitumor activity against mouse 4T1 cells xenografted in BALB/c mouse model assessed as tumor growth inhibition rate at 10 mg/kg, iv measured every two days for 2 weeks relative to control; type: functional; conditions: 4T1, 336 h, read-out: TGI
MCF7 [2] = assay: Induction of cell cycle arrest in human MCF7 cells assessed as accumulation of cells at S phase at 30 nM incubated for 24 hrs by PI staining based flow cytometry analysis (reference value: 14.58%); type: functional
MCF7 [3] = assay: Induction of cell cycle arrest in human MCF7 cells assessed as accumulation of cells at G0/G1 phase at 30 nM incubated for 24 hrs by PI staining based flow cytometry analysis (reference value: 69.67%); type: functional
MCF7 [4] = assay: Induction of cell cycle arrest in human MCF7 cells assessed as accumulation of cells at G0/G1 phase at 15 nM incubated for 24 hrs by PI staining based flow cytometry analysis (reference value: 69.67%); type: functional
MCF7 [5] = assay: Induction of cell cycle arrest in human MCF7 cells assessed as accumulation of cells at S phase at 15 nM incubated for 24 hrs by PI staining based flow cytometry analysis (reference value: 14.58 %); type: functional
MCF7 [6] = assay: Induction of cell cycle arrest in human MCF7 cells assessed as accumulation of cells at G2/M phase at 15 nM incubated for 24 hrs by PI staining based flow cytometry analysis (reference value: 14.36%); type: functional
MCF7 [7] = assay: Induction of cell cycle arrest in human MCF7 cells assessed as accumulation of cells at G2/M phase at 30 nM incubated for 24 hrs by PI staining based flow cytometry analysis (reference value: 14.36%); type: functional

| SMILES | IC50 (MCF7 [1]) [nM] | IC50 (SGC-7901) [nM] | IC50 (A549) [nM] | other results |
| --- | --- | --- | --- | --- |
| COc1cc(-n2nnc3ccc(-c4ccc(C(F)(F)F)cc4)cc32)cc(OC)c1OC | 3390 | 6600 | 5070 |  |
| COc1cc(-n2nnc3ccc(-c4ccc(C)cc4)cc32)cc(OC)c1OC | 330 | 529 | 1400 |  |
| COc1ccc(-c2ccc3nnn(-c4ccc(OC)c(OC)c4)c3c2)cc1O | 346 | 188 | 3930 |  |
| COc1ccc(-c2ccc3nnn(-c4cc(OC)c(OC)c(OC)c4)c3c2)cc1 | 212 | 447 | 1400 |  |
| COc1cc(-n2nnc3ccc(-c4cccc(O)c4)cc32)cc(OC)c1OC | 257 | 1200 | 3530 |  |
| COc1cc(-n2nnc3ccc(-c4ccc(F)cc4)cc32)cc(OC)c1OC | 1250 | 789 | 2150 |  |
| COc1cc(-n2nnc3ccc(-c4ccccc4)cc32)cc(OC)c1OC | 242 | 1820 | 1980 |  |
| COc1cc(-n2nnc3ccc(-c4ccccc4Cl)cc32)cc(OC)c1OC | 8360 | 6340 | 9560 |  |
| COc1cc(-n2nnc3ccc(-c4ccc(C)cc4F)cc32)cc(OC)c1OC | 92 | 893 | 1070 |  |
| COc1cc(-n2nnc3ccc(-c4ccc(Cl)cc4)cc32)cc(OC)c1OC | 1520 | 1460 | 3750 |  |
| COc1cc(-c2ccc3nnn(-c4cc(OC)c(OC)c(OC)c4)c3c2)cc(OC)c1OC | > 10000 | > 10000 | 4790 |  |
| COc1cc(-n2nnc3ccc(-c4cccc(Cl)c4)cc32)cc(OC)c1OC | 2280 | 1480 | 4500 |  |
| COc1cc(-n2nnc3ccc(-c4cccc(F)c4)cc32)cc(OC)c1OC | 7490 | 2980 | 7240 |  |
| COc1cc(-n2nnc3ccc(-c4ccc(O)cc4)cc32)cc(OC)c1OC | 1300 | 4240 | 5110 |  |
| COc1cc(-n2nnc3ccc(-c4cccc(C)c4)cc32)cc(OC)c1OC | 212 | 412 | 2450 |  |
| CCOc1ccc(-c2ccc3nnn(-c4cc(OC)c(OC)c(OC)c4)c3c2)cc1 | 8250 | > 10000 | 2690 |  |
| COc1cccc(-c2ccc3nnn(-c4cc(OC)c(OC)c(OC)c4)c3c2)c1 | 3280 | 8120 | 6850 |  |
| CC(=O)O[C@H]1C(=O)[C@@]2(C)[C@H]([C@H](OC(=O)c3ccccc3)[C@]3(O)C[C@H](OC(=O)[C@H](O)[C@@H](NC(=O)c4ccccc4)c4ccccc4)C(C)=C1C3(C)C)[C@]1(OC(C)=O)CO[C@@H]1C[C@@H]2O [PACLITAXEL] |  |  |  | inhibition (Tubulin (Homo sapiens)): inactive; inhibition in vivo at 10 mg/kg (4T1): 72.1% |
| COc1cc(-n2nnc3ccc(-c4cccc([N+](=O)[O-])c4)cc32)cc(OC)c1OC | 3800 | 6670 | 1940 |  |
| COc1cc(-n2nnc3ccc(-c4ccc(C(C)=O)cc4)cc32)cc(OC)c1OC | 3090 | 4850 | 2570 |  |
| COc1ccc(-c2ccc3ncn(-c4cc(OC)c(OC)c(OC)c4)c3c2)cc1O | 42 | 45 | 210 |  |
| COc1cc(-n2nnc3ccc(-c4ccc(Cl)cc4Cl)cc32)cc(OC)c1OC | 6570 | 2840 | > 10000 |  |
| COc1cc(-n2nnc3ccc(-c4ccc([N+](=O)[O-])cc4)cc32)cc(OC)c1OC | 3100 | 3170 | > 10000 |  |
| COc1cc(OC)cc(-n2nnc3ccc(-c4ccc(OC)c(O)c4)cc32)c1 | 726 | 1070 | 6460 |  |
| COc1cc2c(c(OC)c1OC)-c1ccc(OC)c(=O)cc1[C@@H](NC(C)=O)CC2 [COLCHICINE] | 30 | 12 |  | Activity (MCF7 [2]): 28.2%; Activity (MCF7 [3]): 8.87%; Activity (MCF7 [4]): 37.19%; Activity (MCF7 [5]): 24.77%; Activity (MCF7 [6]): 35.05%; Activity (MCF7 [7]): 63.44% |
| COc1ccccc1-c1ccc2nnn(-c3cc(OC)c(OC)c(OC)c3)c2c1 | 3270 | 1970 | 6500 |  |
